The target in assay [1] is T1, Recombinant human IKKβ (residues 1-737) (Homo sapiens, UniProt O14920).
T1 construct: Recombinant human IKKβ (residues 1-737); GST (C); made in house
T1 sequence (O14920 1-737): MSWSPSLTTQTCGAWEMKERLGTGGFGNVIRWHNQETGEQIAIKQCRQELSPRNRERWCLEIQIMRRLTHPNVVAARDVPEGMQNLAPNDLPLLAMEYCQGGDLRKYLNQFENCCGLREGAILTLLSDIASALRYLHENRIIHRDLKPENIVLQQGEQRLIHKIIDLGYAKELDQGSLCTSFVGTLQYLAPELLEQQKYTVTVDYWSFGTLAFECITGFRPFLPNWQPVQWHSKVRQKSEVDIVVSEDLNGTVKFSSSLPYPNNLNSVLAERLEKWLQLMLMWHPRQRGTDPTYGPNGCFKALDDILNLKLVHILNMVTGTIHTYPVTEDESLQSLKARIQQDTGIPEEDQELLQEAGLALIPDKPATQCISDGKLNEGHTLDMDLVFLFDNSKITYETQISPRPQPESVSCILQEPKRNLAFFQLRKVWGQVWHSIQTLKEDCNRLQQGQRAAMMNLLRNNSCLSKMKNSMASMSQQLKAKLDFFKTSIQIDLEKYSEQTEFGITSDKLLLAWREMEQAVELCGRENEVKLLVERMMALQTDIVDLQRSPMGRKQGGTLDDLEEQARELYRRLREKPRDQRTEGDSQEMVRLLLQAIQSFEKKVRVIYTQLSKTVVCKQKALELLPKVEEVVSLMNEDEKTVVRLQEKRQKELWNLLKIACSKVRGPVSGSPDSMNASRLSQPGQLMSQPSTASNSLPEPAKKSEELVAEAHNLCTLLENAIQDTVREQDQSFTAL
In words: IKK2 assay (TR-FRET). It is filed as biochemical. To be noted: ATP 1 μM final, read-out: pIC50 against IKK2 (converted). Summed up: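 TR-FRET readout (665 nm over 620 nm Eu reference) of GST-IB Ser32/36 phosphorylation after 60 min detection. Reaction: 1 μM ATP, 25 nM substrate, 0.5-5 nM GST-fused IKKβ 1-737 from baculovirus, pH 7.4 HEPES buffer, 1.7% DMSO, 15 min room temperature, EDTA-terminated.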

Assay [2] concerns human monocyte stimulated cytokine production (TNF-α). In words: Monocyte assay (LPS-stimulated TNF-α production). It is filed as cell-based. The note with it: for pIC50: 24 h, 200 ng/mL LPS, TNF-α by ELISA; for inhibition at 0.3 µM: read-out: inhibition at 300 nM in the monocyte assay. Summed up:
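TNF-α release was measured by ELISA after 24 hrs at 37 C. Cells were stimulated with 200 ng/mL E. coli LPS, with compound added 30 minutes beforehand (0.1% DMSO vehicle). Cells were Ficoll/MACS-isolated CD14+ human monocytes adhered at 1×10^6 cells/mL, and viability was checked by trypan blue.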

The values below come from US8063071B2 (GlaxoSmithKline, LLC, priority 2007, dated 2011).

pIC50: −log10 of the molar value. Where a name gives a salt, the structure may show the parent alone.

Turning to `CCCCCN(C)Cc1cc(-c2cc(C(N)=O)c3[nH]cc(C4CCN(S(=O)(=O)CC)CC4)c3c2)cs1` [Example 72, 3-[1-(ethylsulfonyl)-4-piperidinyl]-5-(5-{[methyl(pentyl)amino]methyl}-3-thienyl)-1H-indole-7-carboxamide trifluoroacetate], the IC50 in assay [1] is not above 10 µM. In assay [2], this compound gave a negative logarithm of the IC50 (pIC50) not below 5.82.

`CCS(=O)(=O)N1CCC(c2c[nH]c3c(C(N)=O)cc(-c4csc(CN(C)CC(C)C)c4)cc23)CC1` [Example 73, 3-[1-(ethylsulfonyl)-4-piperidinyl]-5-(5-{[methyl(2-methylpropyl)amino]methyl}-3-thienyl)-1H-indole-7-carboxamide trifluoroacetate]: in assay [1], the IC50 was not above 10 µM. The pIC50 in assay [2] was not below 5.82.

Regarding `CCS(=O)(=O)N1CCC(c2c[nH]c3c(C(N)=O)cc(-c4csc(CN(C)Cc5ccccc5)c4)cc23)CC1` [Example 74, 3-[1-(ethylsulfonyl)-4-piperidinyl]-5-(5-{[methyl(phenylmethyl)amino]methyl}-3-thienyl)-1H-indole-7-carboxamide trifluoroacetate], the IC50 in assay [1] is not above 10 µM. Also, the inhibition at 0.3 µM in assay [2] was in the range of 0 to 60%.

As for `CCS(=O)(=O)N1CCC(c2c[nH]c3c(C(N)=O)cc(-c4csc(CN(C)CCO)c4)cc23)CC1` [Example 75, 3-[1-(ethylsulfonyl)-4-piperidinyl]-5-(5-{[(2-hydroxyethyl)(methyl)amino]methyl}-3-thienyl)-1H-indole-7-carboxamide trifluoroacetate], in assay [1], the IC50 is not above 10 µM. In assay [2], the pIC50 was not below 5.82.

In the case of `CCS(=O)(=O)N1CCC(c2c[nH]c3c(C(N)=O)cc(-c4csc(CN(C)CCc5ccccn5)c4)cc23)CC1` [Example 76, 3-[1-(ethylsulfonyl)-4-piperidinyl]-5-[5-({methyl[2-(2-pyridinyl)ethyl]amino}methyl)-3-thienyl]-1H-indole-7-carboxamide trifluoroacetate], the IC50 in assay [1] is not above 10 µM. Also, the pIC50 in assay [2] is not below 5.82.

Regarding `CCS(=O)(=O)N1CCC(c2c[nH]c3c(C(N)=O)cc(-c4csc(CN(C)Cc5ccco5)c4)cc23)CC1` [Example 77, 3-[1-(ethylsulfonyl)-4-piperidinyl]-5-(5-{[(2-furanylmethyl)(methyl)amino]methyl}-3-thienyl)-1H-indole-7-carboxamide trifluoroacetate], in assay [1], the IC50 was not above 10 µM. Further, the negative-log IC50 (pIC50) in assay [2] was not below 5.82.

Consider `CCS(=O)(=O)N1CCC(c2c[nH]c3c(C(N)=O)cc(-c4csc(CN(C)Cc5ccncc5)c4)cc23)CC1` [Example 78, 3-[1-(ethylsulfonyl)-4-piperidinyl]-5-(5-{[methyl(4-pyridinylmethyl)amino]methyl}-3-thienyl)-1H-indole-7-carboxamide trifluoroacetate], for which, in assay [1], the IC50 was not above 10 µM. In assay [2], this compound had a pIC50 not below 5.82.

`CCS(=O)(=O)N1CCC(c2c[nH]c3c(C(N)=O)cc(-c4csc(CN(C)CC5CCN(C(C)C)C5)c4)cc23)CC1` (stereo not shown) [Example 79, 3-[1-(ethylsulfonyl)-4-piperidinyl]-5-{5-[(methyl{[1-(1-methylethyl)-3-pyrrolidinyl]methyl}amino)methyl]-3-thienyl}-1H-indole-7-carboxamide trifluoroacetate]: in assay [1], the IC50 is not above 10 µM. Besides, the inhibition at 0.3 µM in assay [2] was in the range of 0 to 60%.

Take `CCS(=O)(=O)N1CCC(c2c[nH]c3c(C(N)=O)cc(-c4csc(CN(C)Cc5cccs5)c4)cc23)CC1` [Example 80, 3-[1-(ethylsulfonyl)-4-piperidinyl]-5-(5-{[methyl(2-thienylmethyl)amino]methyl}-3-thienyl)-1H-indole-7-carboxamide trifluoroacetate]: in assay [1], the IC50 was not above 10 µM. Besides, the inhibition at 0.3 µM in assay [2] was 0 to 60%.

Take `CCS(=O)(=O)N1CCC(c2c[nH]c3c(C(N)=O)cc(-c4csc(CN(C)C(C)c5cccs5)c4)cc23)CC1` (stereo not shown) [Example 81, 3-[1-(ethylsulfonyl)-4-piperidinyl]-5-[5-({methyl[1-(2-thienyl)ethyl]amino}methyl)-3-thienyl]-1H-indole-7-carboxamide trifluoroacetate]: in assay [1], the IC50 is not above 10 µM. Further, the inhibition at 0.3 µM in assay [2] was 0 to 60%.

With `CCS(=O)(=O)N1CCC(c2c[nH]c3c(C(N)=O)cc(-c4csc(CN(C)Cc5ccsc5)c4)cc23)CC1` [Example 82, 3-[1-(ethylsulfonyl)-4-piperidinyl]-5-(5-{[methyl(3-thienylmethyl)amino]methyl}-1′-3-thienyl)-1H-indole-7-carboxamide trifluoroacetate], in assay [1], the IC50 was not above 10 µM. The compound further had a pIC50 in assay [2] not below 5.82.

With `CCS(=O)(=O)N1CCC(c2c[nH]c3c(C(N)=O)cc(-c4csc(CN(C)CC5CCOCC5)c4)cc23)CC1` [Example 83, 3-[1-(ethylsulfonyl)-4-piperidinyl]-5-(5-{[methyl(tetrahydro-2H-pyran-4-ylmethyl)amino]methyl}-3-thienyl)-1H-indole-7-carboxamide trifluoroacetate], in assay [1], the IC50 was not above 10 µM. Also, the pIC50 in assay [2] was not below 5.82.

For `CCS(=O)(=O)N1CCC(c2c[nH]c3c(C(N)=O)cc(-c4csc(CN(C)Cc5cccnc5)c4)cc23)CC1` [Example 84, 3-[1-(ethylsulfonyl)-4-piperidinyl]-5-(5-{[methyl(3-pyridinylmethyl)amino]methyl}-3-thienyl)-1H-indole-7-carboxamide trifluoroacetate], the IC50 in assay [1] is not above 10 µM. The inhibition at 0.3 µM in assay [2] is 0 to 60%.

On to `CCS(=O)(=O)N1CCC(c2c[nH]c3c(C(N)=O)cc(-c4csc(CN(C)Cc5ccncn5)c4)cc23)CC1` [Example 85, 3-[1-(ethylsulfonyl)-4-piperidinyl]-5-(5-{[methyl(4-pyrimidinylmethyl)amino]methyl}-3-thienyl)-1H-indole-7-carboxamide trifluoroacetate], for which the IC50 in assay [1] was not above 10 µM. Further, the inhibition at 0.3 µM in assay [2] lay within 0 to 60%.

Turning to `CCS(=O)(=O)N1CCC(c2c[nH]c3c(C(N)=O)cc(-c4csc(CN(C)CCOC)c4)cc23)CC1` [Example 86, 3-[1-(ethylsulfonyl)-4-piperidinyl]-5-[5-({methyl[2-(methyloxy)ethyl]amino}methyl)-3-thienyl]-1H-indole-7-carboxamide trifluoroacetate], in assay [1], the IC50 is not above 10 µM. The compound also showed a pIC50 in assay [2] not below 5.82.

Regarding `CCS(=O)(=O)N1CCC(c2c[nH]c3c(C(N)=O)cc(-c4csc(CN(C)C(C)C)c4)cc23)CC1` [Example 88, 3-[1-(ethylsulfonyl)-4-piperidinyl]-5-(5-{[methyl(1-methylethyl)amino]methyl}-3-thienyl)-1H-indole-7-carboxamide trifluoroacetate], the IC50 in assay [1] was not above 10 µM. The compound also showed a pIC50 in assay [2] not below 5.82.

`CCCC1CCCN1Cc1cc(-c2cc(C(N)=O)c3[nH]cc(C4CCN(S(=O)(=O)CC)CC4)c3c2)cs1` (stereo not shown) [Example 89, 3-[1-(ethylsulfonyl)-4-piperidinyl]-5-{5-[(2-propyl-1-pyrrolidinyl)methyl]-3-thienyl}-1H-indole-7-carboxamide]: in assay [1], the IC50 is not above 10 µM. The pIC50 in assay [2] was not below 5.82.

`CCS(=O)(=O)N1CCC(c2c[nH]c3c(C(N)=O)cc(-c4csc(CN5CCCC5c5cccnc5)c4)cc23)CC1` (stereo not shown) [Example 90, 3-[1-(ethylsulfonyl)-4-piperidinyl]-5-(5-{[2-(3-pyridinyl)-1-pyrrolidinyl]methyl}-3-thienyl)-1H-indole-7-carboxamide]: in assay [1], the IC50 was not above 10 µM. In assay [2], the inhibition at 0.3 µM lay within 0 to 60%.

With `CCS(=O)(=O)N1CCC(c2c[nH]c3c(C(N)=O)cc(-c4csc(CN5CCCC5C(C)(C)C)c4)cc23)CC1` (stereo not shown) [Example 91, 5-(5-{[2-(1,1-dimethylethyl)-1-pyrrolidinyl]methyl}-3-thienyl)-3-[1-(ethylsulfonyl)-4-piperidinyl]-1H-indole-7-carboxamide trifluoroacetate], in assay [1], the IC50 was not above 10 µM. For the same compound, the inhibition at 0.3 µM in assay [2] lay within 0 to 60%.

For the compound `CCC1CCCN1Cc1cc(-c2cc(C(N)=O)c3[nH]cc(C4CCN(S(=O)(=O)CC)CC4)c3c2)cs1` (stereo not shown) [Example 92, 5-{5-[(2-ethyl-1-pyrrolidinyl)methyl]-3-thienyl}-3-[1-(ethylsulfonyl)-4-piperidinyl]-1H-indole-7-carboxamide], in assay [1], the IC50 was not above 10 µM. Further, the negative logarithm of the IC50 (pIC50) in assay [2] is not below 5.82.
